Structures are written as SMILES.

In one series the target is T1, LiTryR (Leishmania infantum, UniProt A4HSF7).
T1 construct: HIS (N); made in house; host or cells: E. coli BL21 (DE3) Rossetta
The series is described as follows: biochemical. In kind it is biochemical. The conditions noted are these: LiTryR; 1 μM TS2; maximum assayed 75 μM; read-out: IC50^act, TryR oxidoreductase activity. The method, then:
A concentration of 1 μM TS2 was used for this initial screening. This low substrate concentration is sufficient for comparison of compound inhibitory activity in the oxidoreductase assay.
Recombinant L. infantum TryR (LiTryR) HIS-tagged and HIS-FLAG-tagged versions were used for all LiTryR oxidoreductase activity and dimer quantitation assays. These LiTryR versions were purified from Escherichia coli as previously described.[25] Briefly, pRSETA-HIS-LiTryR construct alone or in combination with the pET24a-FLAG-LiTryR construct was transformed into BL21 (DE3) Rossetta E. coli strain. An overnight E. coli culture grown at 37 °C in Luria–Bertani (LB) medium with the appropriate antibiotics and vigorous shaking was diluted (1:100) in the same medium and allowed to grow in the same conditions until the OD600 was 0.5. Then, LiTryR expression was induced by addition of 1 mM isopropyl-β-D-1-thiogalactopyranoside (IPTG) for 16 h at 26 °C. The cells were centrifuged for 5 min at 9000g and 4 °C and the wet pellet resuspended in lysis buffer (50 mM Tris, pH 7, 300 mM NaCl, 25 mM imidazole, protease inhibitor cocktail, and 1 mg/mL lysozyme). […] The supernatant was sonicated again as previously described for 10 min and loaded on a HisTrap column (GE Healthcare, Chicago, IL) for 16 h at 4 °C using a P-1 peristaltic pump (GE Healthcare, Chicago, IL). Once loaded, the HisTrap column was connected to an ÄKTA purifier UPC 10 (GE Healthcare, Chicago, IL) and washed using a 5–10% gradient between buffer A (50 mM Tris, pH 7 and 300 mM NaCl) and B (50 mM Tris, pH 7, 300 mM NaCl, and 500 mM imidazole). LiTryR was eluted using a 40% gradient between buffers A and B. Fractions containing recombinant LiTryR were pooled and loaded into a HiPrep 26/10 Desalting column (GE Healthcare, Chicago, IL) previously equilibrated with buffer A. Finally, LiTryR was concentrated to 2 mg/mL using an Amicon Ultra-15 50K (Merck Millipore, Burlington, MA) and an equal volume of glycerol was added before storing at −20 °C.
TryR oxidoreductase activity was determined spectrophotometrically using a modified version of the DTNB-coupled assay described by Hamilton et al.[52] Briefly, reactions were carried out at 26 °C in 250 μL of N-(2-hydroxyethyl)piperazine-N′-ethanesulfonic acid (HEPES) buffer (pH 7.5, 40 mM) containing ethylenediaminetetraacetic acid (EDTA) (1 mM), NADP^+ (30 μM), DTNB (25 μM), TS2 (1 μM), NADPH (150 μM), glycerol (0.02%), DMSO (1.75%), and recombinant TryR (7 nM). […] Reactions were started by addition of a mixture of NADPH and TS2.
TryR oxidoreductase activity was monitored at 26 °C by an increase in absorbance at 412 nm in an EnSpire Multimode Plate Reader (PerkinElmer, Waltham, MA). […] (TNB) concentration was obtained by multiplying the absorbance values by 100 (50 μM TNB generates 0.5 arbitrary units of absorbance at 412 nm). In this DTNB-coupled assay, one molecule of T(SH)2 reduces one molecule of DTNB, producing two TNB molecules. All of the assays were conducted in at least three independent experiments. Data were analyzed using a nonlinear regression model with GraFit 6 software (Erithacus, Horley, Surrey, U.K.).

Another series deals with T2, LiTryR dimer (Leishmania infantum, UniProt A4HSF7).
T2 construct: made in house; host or cells: E. coli BL21 (DE3) Rossetta (co-transformed with both plasmids)
The series is described as follows: biochemical. Conditions: 400 nM LiTryR, 16 h at 37 °C; read-out: IC50^dim, LiTryR monomer displacement (dimer quantitation ELISA). The method, then: The stability of the LiTryR dimeric form in the presence of 1,2,3-triazole-phenyl-thiazole-based compounds was evaluated using the novel enzyme-linked immunosorbent assay (ELISA) developed in our laboratory.[25] […] Next, the different solutions were centrifuged at 18 000g for 15 min at room temperature. The supernatants (200 μL/well) were added to the α-FLAG-coated plates (Sigma-Aldrich, St. Louis, MO) and incubated for 30 min at 37 °C with agitation in a humid atmosphere. The plates were washed five times with TTBS buffer (2 mM Tris, pH 7.6, 138 mM NaCl, and 0.1% Tween-20) and incubated with diluted monoclonal α-HIS horseradish peroxidase (HRP)-conjugated antibody (200 μL, 1:50 000, Abcam, Cambridge, U.K.) in fatty acid- and essentially globulin-free bovine serum albumin (BSA) (5%) prepared in TTBS buffer for 1 h at room temperature. The plates were washed five times, and o-phenylenediamine dihydrochloride (OPD) substrate prepared according to the manufacturer’s instructions was added. The enzymatic reaction was stopped after 5 min with H2SO4 (100 μL, […]), and the absorbances were measured at 490 nm in an EnSpire Multimode Plate Reader (PerkinElmer, Waltham, MA). All of the assays were conducted in triplicate in at least three independent experiments. Data were analyzed using a nonlinear regression model with GraFit 6 software (Erithacus, Horley, Surrey, U.K.).
(In general: ELISA stands for enzyme-linked immunosorbent assay.)

T2 sequence (A4HSF7 1-491): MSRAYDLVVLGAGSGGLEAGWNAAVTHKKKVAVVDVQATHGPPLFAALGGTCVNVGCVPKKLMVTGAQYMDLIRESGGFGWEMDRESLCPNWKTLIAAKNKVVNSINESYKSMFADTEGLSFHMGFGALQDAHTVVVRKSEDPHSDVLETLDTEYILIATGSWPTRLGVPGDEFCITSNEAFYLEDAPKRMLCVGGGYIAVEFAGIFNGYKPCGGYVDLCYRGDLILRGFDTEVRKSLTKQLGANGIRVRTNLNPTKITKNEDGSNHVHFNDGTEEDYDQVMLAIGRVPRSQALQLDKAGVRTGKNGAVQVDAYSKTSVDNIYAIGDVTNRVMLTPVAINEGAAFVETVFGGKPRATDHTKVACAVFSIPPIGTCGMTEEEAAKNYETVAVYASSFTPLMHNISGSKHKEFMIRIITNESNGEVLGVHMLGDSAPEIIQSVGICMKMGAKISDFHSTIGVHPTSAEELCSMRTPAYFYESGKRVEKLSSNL
T1 sequence (A4HSF7 1-491): as above

In general, IC50 refers to the concentration needed to halve the response being measured. What is called melting point is the temperature, or range, at which the solid turns liquid. For `O=C(O)CCCc1cn(-c2ccc(-c3nc(CCc4ccccc4)cs3)c(OCCN3CCNC3=O)c2)nn1` [12g], the melting point is 174.5 to 177.5 °C. Moreover, the IC50 at LiTryR was more than 75 µM. In addition, the IC50 on LiTryR dimer is more than 75 µM.

The values above are taken from paper PMC8480782, “Efficient Dimerization Disruption of Leishmania infantum Trypanothione Reductase by Triazole-phenyl-thiazoles” (Journal of Medicinal Chemistry, 2021).
